Here are results for four compounds from patent publication US8318943B1, “Sorbitol/dexlansoprazole co-crystals and method for making same” (Takeda Pharmaceuticals U.S.A., Inc., priority 2010, dated 2012).

Data set [1] can be described thus: Approximate solubility tests in selected solvents. The format is physicochemical. The settings on record: organic solvent or mixture, read-out: Solubility [S, mg/ml]. From the text: A sample of dexlansoprazole sesquihydrate was characterized by FT-Raman spectroscopy, XRPD, ^1H-NMR and approximate solubility tests.
Accordingly, ethanol, ethyl acetate, acetonitrile, and THF were chosen as solvents for the co-crystal screening.

The nature of data set [2]: physchem. As to conditions: thermodynamic from solid.
Experimental: (§1) The approximate solubilities of the sorbitol co-crystal former were estimated at 60° C. and of the 1:1 dexlansoprazole-sorbitol co-crystal at 40° C. and 10° C. […] The solubility values presented are intended to be regarded as rough estimates and are to be used solely for the design of crystallization experiments. All solvent mixtures are listed as ratios by volume (v/v).
(§2) The solubility values presented are intended to be regarded as rough estimates and are to be used solely for the design of crystallization experiments. All solvent mixtures are listed as ratios by volume (v/v).
The conditions of data set [3]: cited from earlier work.
Data set [4] in a line: Dynamic vapor sorption (DVS), hygroscopicity. Type of data set: physicochemical. How it is done: DVS was carried out in a Surface Measurement System DVS-1. The sample was placed on a platinum holder on top of a microbalance and allowed to equilibrate for 2 hours at 50% r.h. before starting the pre-defined humidity program: 50→95% r.h. (5%/h); 5 hours at 95% r.h., 95→0% r.h. (5%/h); 5 h at 0% r.h., then 0→50% r.h. (5%/h); and 2 hours at 50% r.h.
The hygroscopicity was classified based on the mass gain at 85% r.h. relative to the initial mass as follows: deliquescent (sufficient water adsorbed to form a liquid), very hygroscopic (mass increase of ≧15%), hygroscopic (mass increase <15% but ≧2%), slightly hygroscopic (mass increase <2% but ≧0.2%), or non-hygroscopic (mass increase <0.2%).
In order to examine the behavior of SP134-SBT-P26 in the presence of variable water vapor pressure, the sample was analyzed by isothermal DVS at 25° C. […] The sample was conditioned at 50% r.h. before starting a pre-defined humidity program with a scanning rate of 5% r.h. change per hour. Below 50% r.h. a small but continuous mass loss of the sample is observed (˜0.07%). This mass loss is in good accordance to the results of the TG-FTIR-measurement and Karl Fischer water content determination.
In order to examine the behavior of SP134-SBT-P27 in the presence of variable water vapor pressure, the sample was analyzed by isothermal DVS at 25° C. The sample was conditioned at 50% r.h. before starting a pre-defined humidity program with a scanning rate of 5% r.h. change per hour. Below 50% r.h. a small but continuous mass loss of the sample is observed (˜0.06%). This mass loss is in good accordance to the results of the TG-FTIR-measurement and Karl Fischer water content determination.

Data set [5] can be described thus: Approximate solubility by manual dilution combined with visual observation.
Experimental: as §1, §2
Where [6] appears, read: 1:1 EtOAc/DMSO (v/v), organic solvent or mixture.
[7] abbreviates: 1:1 EtOH/H2O (v/v), aqueous with cosolvent or surfactant or cyclodextrin.
Setting [8] is: 2:1 EtOH/H2O + 5 vol.-% NH3 solution, aqueous with cosolvent or surfactant or cyclodextrin.
[9] abbreviates: 2:1 MeOH/H2O + 5 vol.-% NH3 solution, aqueous with cosolvent or surfactant or cyclodextrin.
The mark [10] stands for this setting: 2:1 MeOH/borax buffer, pH 9, aqueous with cosolvent or surfactant or cyclodextrin.
The mark [11] stands for this setting: 9:1 EtOAc/DMSO (v/v), organic solvent or mixture.
Where [12] appears, read: DMSO, organic solvent or mixture.
The mark [13] stands for this setting: EtOAc, organic solvent or mixture.
Where [14] appears, read: MeOH, organic solvent or mixture.
Setting [15] is: isothermal DVS at 25° C., listed as SP134-SBT-P27.

Values after ≈ are worked out from the molar mass of the structure shown. Like-named read-outs stand apart in the source and are kept apart here.

Regarding `Cc1c(OCC(F)(F)F)ccnc1C[S@@+]([O-])c1nc2ccccc2[nH]1` [SP134-FD-P1, dexlansoprazole sesquihydrate, reference compound], the solubility in data set [1] (MEK) was roughly 226 mg/mL; in data set [1] (THF), roughly 228 mg/mL; in data set [1] (acetone), roughly 230 mg/mL; in data set [1] (acetonitrile) it was roughly 210 mg/mL; in data set [1] (ethanol) it was roughly 228 mg/mL; in data set [1] (ethyl acetate), roughly 204 mg/mL. In addition, the solubility in data set [1] (methanol) is roughly 204 mg/mL; in data set [2] (setting [6]), greater than 200 mg/mL; in data set [2] (setting [7]), roughly 30 mg/mL; in data set [2] (setting [8]), 100 to 200 mg/mL; in data set [2] (setting [9]), 100 to 200 mg/mL; in data set [2] (setting [10]), 90 to 190 mg/mL. Besides, the solubility in data set [2] (setting [11]) was greater than 200 mg/mL; in data set [2] (setting [12]), greater than 200 mg/mL; in data set [2] (setting [13]), greater than 20 mg/mL; in data set [2] (setting [14]), greater than 200 mg/mL; in data set [2] (ethanol, organic solvent or mixture) it was greater than 200 mg/mL; in data set [2] (water), less than 1 mg/mL.

`OC[C@@H](O)[C@@H](O)[C@H](O)[C@@H](O)CO` [Sorbitol, D-sorbitol]: the solubility in data set [2] (1:1 DMSO/EtOH (v/v), 60 °C, organic solvent or mixture) was greater than 102 mg/mL; in data set [2] (setting [6]), 125 to 250 mg/mL (≈ 686 to 1370 mM); in data set [2] (1:1 EtOAc/EtOH (v/v), 60 °C, organic solvent or mixture) it was 3 mg/mL (≈ 16.5 mM); in data set [2] (setting [7]), roughly 160 mg/mL (≈ 878 mM); in data set [2] (1:2 EtOAc/EtOH (v/v), 60 °C, organic solvent or mixture), 6 mg/mL (≈ 32.9 mM); in data set [2] (1:3 DMSO/EtOH (v/v), 60 °C, organic solvent or mixture), 54 to 108 mg/mL (≈ 296 to 593 mM). Besides, the solubility in data set [2] (1:3 EtOAc/EtOH (v/v), 60 °C, organic solvent or mixture) was 10 mg/mL (≈ 54.9 mM); in data set [2] (1:5 DMSO/EtOH (v/v), 60 °C, organic solvent or mixture), 39 to 59 mg/mL (≈ 214 to 324 mM); in data set [2] (1:5 EtOAc/EtOH (v/v), 60 °C, organic solvent or mixture), 11 mg/mL (≈ 60.4 mM); in data set [2] (setting [8]), 125 to 250 mg/mL; in data set [2] (setting [9]), greater than 250 mg/mL; in data set [2] (setting [10]) it was greater than 250 mg/mL. In addition, the solubility is roughly 1 mg/mL (≈ 5.49 mM) in data set [2] (setting [11]); greater than 200 mg/mL in data set [2] (setting [12]); less than 1 mg/mL in data set [2] (setting [13]); roughly 13 mg/mL (≈ 71.4 mM) in data set [2] (setting [14]); greater than 200 mg/mL in data set [2] (water).

For `Cc1c(OCC(F)(F)F)ccnc1C[S@@+]([O-])c1nc2ccccc2[nH]1` [Dexlansoprazole], the Descriptive solubility result was “soluble” in data set [3] (acetonitrile); “freely soluble” in data set [3] (dichloromethane); “freely soluble” in data set [3] (dimethyl formamide); “freely soluble” in data set [3] (ethanol); “slightly soluble” in data set [3] (ether); “freely soluble” in data set [3] (ethyl acetate). Also, the Descriptive solubility entry in data set [3] (hexane) was “substantially insoluble”; in data set [3] (methanol), “freely soluble”; in data set [3] (water) it was “very slightly soluble”. Further, the “Stability when exposed to light” value in data set [3] (light) is recorded as “stable”. For the same compound, the “Stability depending on pH conditions” value in data set [3] (neutral and alkaline vs acidic conditions) was “more stable in neutral and alkaline conditions than acidic conditions”.

`Cc1c(OCC(F)(F)F)ccnc1C[S@@+]([O-])c1nc2ccccc2[nH]1.OC[C@@H](O)[C@@H](O)[C@H](O)[C@@H](O)CO` [SP134-SBT-P26]: the “FT-Raman post-DVS compared with pre-DVS/reference (form change)” value in data set [4] (after DVS cycle) is given as “no phase transition”. In addition, the “DVS water uptake at about 85% r.h. relative to the mass at 0% r.h.” value in data set [4] (isothermal DVS at 25° C.) is given as 0.12%; in data set [4] (setting [15]) it was 0.08%. The “DVS mass loss below 50% r.h.” value in data set [4] (isothermal DVS at 25° C.) is roughly 0.07%; in data set [4] (setting [15]), roughly 0.06%. Further, the Hygroscopicity class entry in data set [4] (isothermal DVS at 25° C., water uptake at about 85% r.h. relative to the mass at 0% r.h.) is “not hygroscopic”. Further, the Approximate solubility was 14 to 16 mg/mL in data set [5] (1:3 DMSO/EtOH, 10° C.); 50 to 63 mg/mL in data set [5] (1:3 DMSO/EtOH, 40° C.); 11.5 to 12.5 mg/mL in data set [5] (1:4 DMSO/EtOH, 10° C.); greater than 37 mg/mL in data set [5] (1:4 DMSO/EtOH, 40° C.); 9.3 to 9.8 mg/mL in data set [5] (1:5 DMSO/EtOH, 10° C.); 17 to 23 mg/mL in data set [5] (1:5 DMSO/EtOH, 40° C.). Also, the “Solubility relative to sorbitol and dexlansoprazole” value in data set [5] (DMSO/EtOH, 40° C.) was “less soluble than sorbitol and dexlansoprazole”.
